Reference: patent US9072751B2, “Na/K-ATPase ligand” (priority 2006, dated 2015)

Tests used:
[1] = tested on: left ventricular cardiac tissue; assay: Cardiac tissue fibrosis, immunohistochemistry and Western blot after MBG infusion; assay type: in vivo, Sprague-Dawley rats
Protocol: Briefly, Sprague-Dawley rats weighing.apprxeq.250 g at the time of surgery were subjected to either sham surgery with no MBG infusion (Sham), sham surgery with placement of a minipump infusing MBG at 10 μg/kg per day (MBG), PNx, and PNx after immunization against MBG (PNx-IM). MBG of extremely high purity (>99%) was isolated from the venom of Bufa marinas by Kennedy et al. In addition to these maneuvers, a group of PNx animals was subjected to adrenalectomy as well (PNx-ADx).
(determined after extraction on a C-18 column using DELPHIA as described previously), aldosterone (determined with ELISA kit 10004377, Cayman Chemical) and cardiac immunohistochemistry (vida infra) were assessed 4 weeks after surgery.
Western blot analysis was performed on protein isolated from tissue homogenates, cell culture whole cell lysates, or nuclear extracts as described previously.
Immunization against MBG attenuated these increases. Western blot analysis confirmed that PNx and MBG had 2 to 2.5 times the expression of procollagin-1 and a smooth muscle actin seen with sham-operated controls, whereas PNx-IM expression of both procollagen-1 and a smooth muscle actin was substantially less than that seen with PNx.
Other data includes a representative pressure-volume loops obtained during vena cava occlusion from rats subjected to sham surgery (Sham), PNx, MBG infusion (MBG), and PNx after immunization against an MBG-albumin conjugate (PNx-IM). Regression lines fit to the end systolic pressure volume relationship (ESPVR, dotted line) and the end diastolic pressure volume relationship (EDPVR, solid line). B, ventricular cross-sectional areas determined from trichrome stains of tissue obtained from Sham, PNx, MBG, and PNx-IM animals (each group: N=8 animals, .apprxeq.100 measurements averaged to determine mean for each animal; data shown as the group mean.+−.SEM using N−8). Representative immunohistochemistry images of cardiac tissues stained for (c) collagen-1 and (d) a smooth muscle actin (aSMA). Counterstain for both c and d was hematoxlyn. Western blot and corresponding densitometric analysis for (e) procollagen-1 and (f) aSMA. Note that both collagen-1 and aSMA staining are much more intense in the PNx and MBG groups compared with Sham, whereas the PNx-IM staining is similar to Sham. Similarly, procollagen and aSMA expression are substantially higher in PNx and MBG animals compared with Sham, whereas immunization against MBG (PNx-IM) attenuated the changes seen with PNx. Data for e and f are derived from N=6 experiments in each group and shown as mean.+−.SEM. Sham refers to hearts isolated from control animals, PNx refers to PNx, MBG refers to MBG supplemented, and PNx-IM refers to animals immunized against MGB before PNx surgery. *P<0.05, **P<0.01 vs Sham, #P<0.01 vs PNx.

[2] = tested on: isolated cardiac fibroblasts; assay: Radiolabeled proline incorporation into collagen (collagen synthesis) in cardiac fibroblasts; assay type: cell-based, rat; details: 10^−9 and 10^−8 M
Protocol: Preparation of adult rat cardiac fibroblasts was performed as described previously by Brilla et al. with modifications.
Collagen synthesis rates were determined by the method of Nishida et al. with modification.
To further examine the molecular basis of this cardiac fibrosis, isolated cardiac fibroblasts were subjected to increase doses of MBG (10^−10, 10^−9, and 10^−8 M). […] Using collagenase digestion, we observed that the vast majority of the proline incorporation was into collagen. Using standardized RT-PCR, we observed a doubling of mRNA for collagen-1 at 24 hours in response to 10 nM of MBG.
Representative Western blot for procollagen and quantitative densitometric data obtained in response to different doses of (a) MBG (all N=10), (b) MBG 10 nM contrasted with different doses of ouabain (0.1 to 100 nM) and digoxin (10 nM; all N=8). c, ouabain sensitive Rb uptake as a function of MBG and ouabain concentration (N=4 at each concentration for both MBG and ouabain; data expressed as fraction of control). d, relative proline incorporation in the supernatant and matrix, both will and without collagenase digestion (total). Each group (controls and different doses of MBG) contains N=7 replicants. The difference between the total and after collagenase digestion is reported as collagen. The matrix is the sample that was obtained after removing supernatant and scraping the culture dish. e, mRNA for collagen 1 in MBG-treated (10 nM; N=8) or control (N=8) fibroblasts. f, procollagen stability after cycloheximide treatment. Time 0 is 1 hour after incubation with cycloheximide (20 μg/mL). […] Least-square regression line fit to control (CTL) and MBG data. Bars on quantitative graphs represent the mean.+−.SEM. *P<0.05 and **P<0.01 vs control.
The effects of PP2 (1 μmol/L), herbimycin (1 μmol/L), AG1478 (250 nM), and N-acetyl cysteine (2.5 mmol/L) on MBG (10 nM) stimulation of procollagen expression also were found. The PP2, herbimycin AG1478, and N-acetyl cysteine were administered from 2 hours before the addition of MBG and continued throughout the 24 hours of MBG incubation (total of 26 hours). Each bar represents the mean.+−.SEM of n=8 experiments. b, effects of PP2 (1 μmol/L) and N-acetyle cysteine (2.5 mmol/L) on MBG (10 nM)-stimulated proline incorporation into collagen. Again, the PP2 an N-acetyl cysteine were added 2 hours before exposure to MBG. Each bar represents the mean.+−.SEM of N=5 experiments. c, effects of MBG 10 nM on procollagen content in SYF and SYF+ cells. Representative Western blots are shown above quantitative data. SYF blots loaded with 15 μg of protein and SYF+blots loaded with 10 μg of protein. Each bar represents the mean.+−SEM of N-6 determinations In each group. **[…] vs. control.
The effect of 24 hours of MBG (1 and 10 nM) on TGF-β, Smad 2/3, Smad 4, and pSmad 2/3 expression determined by Western blot. b and c, effects of 24 hours of MBG (10 nM), TGFβ(5 ng/mL), and the TGF-β receptor antagonist SB431542 ([…] on procollagen-1 expression (Western blot) and radiolabeled proline incorporation, respectively also were carried out. SB431542 was added 2 hours before exposure to either TGFβ or MBG (total of 26-hour exposure). Each bar represents the mean.+−.SEM of 6 to 8 determinations. *P<0.05, **P<0.01 vs. control.

SYF+Src line = assay: In vitro wound healing (scrape injury) in SYF+Src fibroblasts; assay type: cell-based, mouse; details: 12 hour pretreatment
Protocol: Next, we examined whether wound healing might be advantageously impacted by cardiotonic steroids. We grew a mouse fibroblast cell line, the SYF+Src line to confluence and make injuries by scraping with a pipette tip.
Representative images from fibroblasts at 3, 7 and 12 hours following injury. Quantification of wound closure from fibroblast cultures. Data represents N=6 separate pairs of experiments, each of which involves 3 determinations at each time point. Data shown as mean+/−SEM. **<0.01. We proposed to enhance skin fibroblast collagen production by topical or injected administration of cardiotonic steroids and prevent or reverse aging related loss of skin tone.

C[C@]12CC[C@H](O)C[C@@]1(O)CC[C@@H]1[C@@H]2CC[C@]2(C)[C@@H](c3ccc(=O)oc3)C[C@H]3O[C@]132 [MBG, marinobufagenin]
Cardiac fibrosis [1]: caused cardiac fibrosis
Collagen-1 and a smooth muscle actin staining (immunohistochemistry) ([1]; heart tissue): marked increases
Expression of a smooth muscle actin relative to sham-operated controls (Western blot) ([1]; heart tissue): 2 to 2.5 times
Expression of procollagin-1 relative to sham-operated controls (Western blot) ([1]; heart tissue): 2 to 2.5 times
Proline incorporation into total protein, matrix and supernatant [2]: significant increases
Closure of the experimental lesion (SYF+Src line): markedly accelerated
